From patent US20240083857A1, “2-Methyl-Quinazolines” (Bayer Pharma Aktiengesellschaft, priority 2017, published 2024)
Like-named read-outs stand apart in the source and are kept apart here.

Assays:
[1] = target: K-Ras^G12C : hSOS1 interaction (Homo sapiens, UniProt Q07889); assay: Biochemical assay 1: K-Ras^G12C interaction assay with hSOS1 (HTRF); type: binding; details: for inhibition at 20 µM: read-out: Assay 1 (KRAS-SOS Interaction) activity expressed as % inhibition at 20 μM
[2] = target: human SOS1 (loading of human K-Ras^G12C-GDP with fluorescent GTP-analog) (Homo sapiens, UniProt Q07889); assay: Biochemical assay 3: K-Ras^G12C activation assay by hSOS1 (HTRF); details: for inhibition at 20 µM: read-out: Assay 3 (KRAS-Activation by SOS no GTP) activity expressed as % inhibition at 20 μM
[3] = target: human SOS1 (nucleotide exchange of K-Ras^G12C) (Homo sapiens, UniProt Q07889); assay: Biochemical assay 2: K-Ras^G12C activation assay by hSOS1 at high GTP concentration (HTRF); details: for inhibition at 20 µM: read-out: Assay 2 (KRAS-Activation by SOS high GTP) activity expressed as % inhibition at 20 μM
[4] = read-out: Assay 1 (KRAS-SOS Interaction) activity expressed as IC50
[5] = no GTP, read-out: Assay 3 (KRAS-Activation by SOS no GTP) activity expressed as IC50
[6] = high GTP, read-out: Assay 2 (KRAS-Activation by SOS high GTP) activity expressed as IC50
[7] = E-notation values, unit inferred, read-out: Assay 1 (KRAS-SOS interaction) IC50
[8] = E-notation values, unit inferred, read-out: Assay 3 (KRAS-Activation) IC50
[9] = E-notation values, unit inferred, 50 μM GTP, read-out: Assay 2 (KRAS-Activation, high GTP) IC50

Structure (SMILES)	IC50 [1, 4]	IC50 [2, 5]	IC50 [3, 6]	further results
COc1cc2nc(C)nc(N[C@@H](C)c3ccc(-c4ccc5c(c4)OCCN5C)s3)c2cc1OC (stereo in doubt) [Example 164, 6,7-dimethoxy-2-methyl-N-{1-[5-(4-methyl-3,4-dihydro-2H-1,4-benzoxazin-7-yl)thiophen-2-yl]ethyl}quinazolin-4-amine]	–	–	–	inhibition at 20 µM [1]: 41%; inhibition at 20 µM ([2]; no GTP): 22%; inhibition at 20 µM ([3]; high GTP): 19%
COc1cc2nc(C)nc(N[C@H](C)c3cccc(-c4ccc5c(c4)CC(=O)N5)c3)c2cc1OC [Example 57, 5-(3-{(1R)-1-[(6,7-dimethoxy-2-methylquinazolin-4-yl)amino]ethyl}phenyl)-1,3-dihydro-2H-indol-2-one]	414 nM	629 nM	401 nM	–
COc1cc2nc(C)nc(N[C@H](C)c3cccc(-c4ccc5c(c4)OCO5)c3)c2cc1OC [Example 96, N-{(1R)-1-[3-(1,3-benzodioxol-5-yl)phenyl]ethyl}-6,7-dimethoxy-2-methylquinazolin-4-amine]	1040 nM	1390 nM	1090 nM	–
COc1cc2nc(C)nc(N[C@H](C)c3cccc(-c4cccc(S(N)(=O)=O)c4)c3)c2cc1OC [Example 61, 3′-{(1R)-1-[(6,7-dimethoxy-2-methylquinazolin-4-yl)amino]ethyl}biphenyl-3-sulfonamide]	374 nM	895 nM	717 nM	–
COc1cc2nc(C)nc(N[C@H](C)c3cccc(-c4ccc(-c5nnc(C)o5)cc4)c3)c2cc1OC [Example 59, 6,7-dimethoxy-2-methyl-N-{(1R)-1-[4′-(5-methyl-1,3,4-oxadiazol-2-yl)biphenyl-3-yl]ethyl}quinazolin-4-amine]	1590 nM	965 nM	770 nM	–
COc1cc2nc(C)nc(N[C@H](C)c3cccc(-c4ccccc4OCc4ccccc4)c3)c2cc1OC [Example 81, N-{(1R)-1-[2′-(benzyloxy)biphenyl-3-yl]ethyl}-6,7-dimethoxy-2-methylquinazolin-4-amine]	–	–	–	inhibition at 20 µM [1]: 42%; inhibition at 20 µM ([2]; no GTP): 24%; inhibition at 20 µM ([3]; high GTP): 33%
COc1ccc2oc(-c3cccc([C@@H](C)Nc4nc(C)nc5cc(OC)c(OC)cc45)c3)cc2c1 [Example 66, 6,7-dimethoxy-N-{(1R)-1-[3-(5-methoxy-1-benzofuran-2-yl)phenyl]ethyl}-2-methylquinazolin-4-amine]	3460 nM	6600 nM	4550 nM	–
C/C=C/c1cccc([C@@H](C)Nc2nc(C)nc3cc(OC)c(OC)cc23)c1 [Example 116, 6,7-dimethoxy-2-methyl-N-[(1R)-1-{3-[(1E)-prop-1-en-1-yl]phenyl}ethyl]quinazolin-4-amine]	1080 nM	1720 nM	1150 nM	–
COc1cc2nc(C)nc(N[C@H](C)c3cccc(-c4ccc(C(C)(C)C#N)cc4)c3)c2cc1OC [Example 69, 2-(3′-{(1R)-1-[(6,7-dimethoxy-2-methylquinazolin-4-yl)amino]ethyl}biphenyl-4-yl)-2-methylpropanenitrile]	3920 nM	9070 nM	5410 nM	–
COc1cc2nc(C)nc(N[C@H](C)c3cccc(-c4cccc(N5CCOCC5)c4)c3)c2cc1OC [Example 80, 6,7-dimethoxy-2-methyl-N-{(1R)-1-[3′-(morpholin-4-yl)biphenyl-3-yl]ethyl}quinazolin-4-amine]	721 nM	1120 nM	711 nM	–
Cc1nc(N[C@H](C)c2ccccc2)c2cc(Br)ccc2n1 [Example 29, 6-bromo-2-methyl-N-[(1R)-1-phenylethyl]quinazolin-4-amine]	10200 nM	–	10900 nM	inhibition at 20 µM ([2]; no GTP): 44%
C/C=C(\C)c1cccc([C@@H](C)Nc2nc(C)nc3cc(OC)c(OC)cc23)c1 [Example 76, N-[(1R)-1-{3-[(2E)-but-2-en-2-yl]phenyl}ethyl]-6,7-dimethoxy-2-methylquinazolin-4-amine]	471 nM	952 nM	1190 nM	–
Cc1nc(NC(C)c2ccc(-c3ccccc3CN(C)C)s2)c2cc(N3CCCC3)ccc2n1 (stereo not drawn) [Example 415, N-[1-(5-{2-[(dimethylamino)methyl]phenyl}thiophen-2-yl)ethyl]-2-methyl-6-(pyrrolidin-1-yl)quinazolin-4-amine]	–	–	–	IC50 [1, 7]: 115 nM; IC50 [2, 8]: 94.2 nM; IC50 [3, 9]: 88.5 nM
COc1cc2nc(C)nc(N[C@H](C)c3cccc(-c4cccc5cnccc45)c3)c2cc1OC [Example 39, N-{(1R)-1-[3-(isoquinolin-5-yl)phenyl]ethyl}-6,7-dimethoxy-2-methylquinazolin-4-amine]	1460 nM	3050 nM	1830 nM	–
COc1ncc(-c2cccc([C@@H](C)Nc3nc(C)nc4cc(OC)c(OC)cc34)c2)cn1 [Example 111, 6,7-dimethoxy-N-{(1R)-1-[3-(2-methoxypyrimidin-5-yl)phenyl]ethyl}-2-methylquinazolin-4-amine]	2100 nM	3340 nM	1670 nM	–
COc1cc2nc(C)nc(N[C@@H](C)c3ccc(/C=C/c4ccccc4)s3)c2cc1OC (racemic) [Example 175, 6,7-dimethoxy-2-methyl-N-[1-{5-[(E)-2-phenylethenyl]thiophen-2-yl}ethyl]quinazolin-4-amine]	17600 nM	–	–	inhibition at 20 µM ([2]; no GTP): 44%; inhibition at 20 µM ([3]; high GTP): 50%
CCCOc1ccc(Cl)cc1-c1cccc([C@@H](C)Nc2nc(C)nc3cc(OC)c(OC)cc23)c1 [Example 77, N-[(1R)-1-(5′-chloro-2′-propoxybiphenyl-3-yl)ethyl]-6,7-dimethoxy-2-methylquinazolin-4-amine]	7860 nM	19900 nM	9630 nM	–
COc1cc2nc(C)nc(N[C@@H](C)c3ccc(-c4cnc5[nH]ccc5c4)s3)c2cc1OC (racemic) [Example 129, 6,7-dimethoxy-2-methyl-N-{1-[5-(1H-pyrrolo[2,3-b]pyridin-5-yl)thiophen-2-yl]ethyl}quinazolin-4-amine]	1480 nM	3450 nM	2380 nM	–
COc1cc2nc(C)nc(NC(C)c3ccc(-c4ccc(C(F)(F)F)cc4C)s3)c2cc1OC (stereo not drawn) [Example 386, 6,7-di methoxy-2-methyl-N-(1-{5-[2-methyl-4-(trifluoromethyl)phenyl]-2-thienyl}ethyl)quinazolin-4-amine]	–	–	–	IC50 [1, 7]: 8770 nM; IC50 [2, 8]: 10100 nM; IC50 [3, 9]: 3660 nM
COc1cc2nc(C)nc(N[C@@H](C)c3ccc(-c4cccc5cnccc45)s3)c2cc1OC (racemic) [Example 45, N-{1-[5-(isoquinolin-5-yl)thiophen-2-yl]ethyl}-6,7-dimethoxy-2-methylquinazolin-4-amine]	1510 nM	1100 nM	2170 nM	–
COc1cc2nc(C)nc(N[C@H](C)c3cccc(-c4cccc(S(C)(=O)=O)c4)c3)c2cc1OC [Example 112, 6,7-dimethoxy-2-methyl-N-{(1R)-1-[3′-(methylsulfonyl)biphenyl-3-yl]ethyl}quinazolin-4-amine]	696 nM	1120 nM	948 nM	–
COc1cc2nc(C)nc(N[C@H](C)c3cccc(-c4cncnc4)c3)c2cc1OC [Example 37, 6,7-dimethoxy-2-methyl-N-{(1R)-1-[3-(pyrimidin-5-yl)phenyl]ethyl}quinazolin-4-amine]	1540 nM	2690 nM	1850 nM	–
COc1cc2nc(C)nc(N[C@H](C)c3cccc(/C=C/C4CCCCC4)c3)c2cc1OC [Example 90, N-[(1R)-1-{3-[(E)-2-cyclohexylethenyl]phenyl}ethyl]-6,7-dimethoxy-2-methylquinazolin-4-amine]	11000 nM	–	–	inhibition at 20 µM ([2]; no GTP): 33%; inhibition at 20 µM ([3]; high GTP): 46%
COc1cc(F)cc(-c2cccc([C@@H](C)Nc3nc(C)nc4cc(OC)c(OC)cc34)c2)c1 [Example 65, N-[(1R)-1-(3′-fluoro-5′-methoxybiphenyl-3-yl)ethyl]-6,7-dimethoxy-2-methylquinazolin-4-amine]	5760 nM	13500 nM	8340 nM	–
COc1cc2nc(C)nc(N[C@@H](C)c3ccc(-c4cncc(C)c4)s3)c2cc1OC (racemic) [Example 46, 6,7-dimethoxy-2-methyl-N-{1-[5-(5-methylpyridin-3-yl)thiophen-2-yl]ethyl}quinazolin-4-amine]	2370 nM	4100 nM	3820 nM	–
COc1cc2nc(C)nc(N[C@H](C)c3cccc(-c4cccc(NS(C)(=O)=O)c4)c3)c2cc1OC [Example 118, N-(3′-{(1R)-1-[(6,7-dimethoxy-2-methylquinazolin-4-yl)amino]ethyl}biphenyl-3-yl)methanesulfonamide]	529 nM	774 nM	481 nM	–
COc1cccc(-c2cccc([C@@H](C)Nc3nc(C)nc4cc(OC)c(OC)cc34)c2)c1 [Example 99, 6,7-dimethoxy-N-[(1R)-1-(3′-methoxybiphenyl-3-yl)ethyl]-2-methylquinazolin-4-amine]	2180 nM	2630 nM	1420 nM	–
COc1cc2nc(C)nc(N[C@@H](C)c3ccc(/C=C/Cc4ccccc4)s3)c2cc1OC (racemic) [Example 145, 6,7-dimethoxy-2-methyl-N-[1-{5-[(1E)-3-phenylprop-1-en-1-yl]thiophen-2-yl}ethyl]quinazolin-4-amine]	–	–	–	inhibition at 20 µM [1]: 40%; inhibition at 20 µM ([2]; no GTP): 11%; inhibition at 20 µM ([3]; high GTP): 18%
